# According to paper PMC3288891 (2012):
# Legend:
# [1] = biological target: T1, P180C/E186C PTP1B (protein tyrosine phosphatase 1B) (Homo sapiens, UniProt P18031, E186C/P180C); experiment: pNPP phosphatase assay with purified enzyme; format: biochemical
# T1 sequence (P18031 1-435 P180C/E186C): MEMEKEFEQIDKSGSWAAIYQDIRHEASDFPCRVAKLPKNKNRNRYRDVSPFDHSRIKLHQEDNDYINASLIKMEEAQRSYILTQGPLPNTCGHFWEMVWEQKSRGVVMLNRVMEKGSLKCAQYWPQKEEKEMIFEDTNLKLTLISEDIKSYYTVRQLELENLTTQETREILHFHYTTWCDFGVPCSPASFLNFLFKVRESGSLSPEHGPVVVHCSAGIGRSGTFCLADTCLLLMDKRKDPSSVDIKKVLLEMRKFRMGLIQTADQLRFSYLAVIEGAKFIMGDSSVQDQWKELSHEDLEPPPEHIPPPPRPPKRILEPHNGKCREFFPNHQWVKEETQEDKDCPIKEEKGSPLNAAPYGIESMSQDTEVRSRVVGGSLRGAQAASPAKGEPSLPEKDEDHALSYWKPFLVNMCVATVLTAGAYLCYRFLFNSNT
# [2] = biological target: T1, P180C/E186C PTP1B (protein tyrosine phosphatase 1B); experiment: biochemical
# [3] = biological target: wild-type PTP1B (protein tyrosine phosphatase 1B) (Homo sapiens, UniProt P18031); experiment: biochemical
# [4] = biological target: P180C/P185C PTP1B (protein tyrosine phosphatase 1B) (Homo sapiens, UniProt P18031, P180C/P185C); experiment: biochemical
# Chain of P180C/P185C PTP1B (protein tyrosine phosphatase 1B) (P18031 1-321 P180C/P185C limits assumed): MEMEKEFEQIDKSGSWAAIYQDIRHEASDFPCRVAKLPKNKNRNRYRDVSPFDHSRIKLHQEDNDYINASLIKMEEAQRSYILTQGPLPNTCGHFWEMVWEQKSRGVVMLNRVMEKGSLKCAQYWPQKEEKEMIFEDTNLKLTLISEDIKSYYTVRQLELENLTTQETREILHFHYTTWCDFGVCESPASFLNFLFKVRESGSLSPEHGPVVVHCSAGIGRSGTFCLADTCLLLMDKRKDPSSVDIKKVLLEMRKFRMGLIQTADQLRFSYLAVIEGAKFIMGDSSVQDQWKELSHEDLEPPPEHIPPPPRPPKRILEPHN
# Chain of wild-type PTP1B (protein tyrosine phosphatase 1B) (P18031 1-321 limits assumed): as the sequence (P18031 1-321 P180C/P185C limits assumed) above, with C180P, C185P counted along it
Structure (SMILES),IC50 [1],Km [2],Km [3],Km [4]
"O=C1OC2(c3ccccc31)c1ccc(O)c([As]3SCCS3)c1Oc1c2ccc(O)c1[As]1SCCS1 [FlAsH-EDT2, 4′,5′-bis(1,3,2-dithioarsolan-2-yl)fluorescein]",~130 nM,–,–,–
O=[N+]([O-])c1ccc(OP(=O)(O)O)cc1 [para-nitrophenyl phosphate],–,980 ± 90 µM,2.29 ± 0.21 mM,2.03 ± 0.25 mM
